These results are taken from patent US6346517B1, “Synergy between low molecular weight heparin and platelet aggregation inhibitors, providing a combination therapy for the prevention and treatment of various thromboembolic disorders” (Bristol-Myers Squibb Pharma Company, priority 1999, dated 2002).

The subject of experiment [1] is carotid artery thrombus formation. In words: Electrically induced carotid artery thrombosis, carotid blood flow (rabbit model of arterial thrombosis). Conditions: i.v. infusion from 1 hour before and during 90 min after electrical stimulation, aspirin 1 mg/kg/hr, Compound (A) 0.03 mg/kg/hr, Fragmin 60 U/kg/hr. Type of experiment: in vivo. The procedure: (§1) Rabbits were anesthetized with ketamine (50 mg/kg i.m.) and xylazine (10 mg/kg i.m.) and then surgically prepared with arterial and venous catheters. An electromagnetic flow probe was placed on a segment of an isolated carotid artery to monitor blood flow. Thrombus formation was induced by electrical stimulation of the carotid artery for 3 min at 4 mA using an external stainless-steel bipolar electrode. Carotid blood flow was measured continuously over a 90-min period to monitor thrombus occlusion. Test agents were infused intravenously 1 hour prior to the electrical stimulation of the carotid artery and continuously during the 90-min period.

In another experiment the test system is preformed clot. In words: Thrombolysis of a preformed carotid clot in rats (reperfusion, patency, reocclusion). The experiment is classed as in vivo. Conditions: for effectiveness in preventing thrombosis in this rat model: 0.3 mg/kg i.v., free acids. Here is the method: as §1
Experiments were conducted in rats anesthetized with ketamine (110 mg/kg i.m.) and xylazine (10 mg/kg i.m.). The protocol is similar to the rabbit protocol as described above in Example 1 except that the free acid of a compound of the formula (B): [drawing 11]
or the free acid of sibrafiban and/or TPA were given 5 min after a preformed clot was formed. The measured parameters were time to reperfusion, duration of patency and incidence of reocclusion. The doses of TPA, sibrafiban and compound B used were 1, 0.3 and 0.3 mg/kg i.v., respectively.

Experiment [2] concerns clot formation in human whole blood. In words: Computerized thromboelastography (TEG): mediator-induced clot formation under shear in whole blood. The experiment is classed as cell-based. Conditions: for enhancement of clot strength by platelets: TF-accelerated clot formation. Here is the method:
Clot formation was monitored at 37° C. in an oscillating plastic cylindrical cuvette (“cup”) and a coaxially suspended stationary piston (“pin”) with a 1 mm clearance between the surfaces, using a computerized Thrombelastograph (CTEG Model 3000, Haemoscope, Skokie, IL). The cup oscillates 4°45′ ( 1/12 radian) in either direction every 4.5 seconds, with a 1 second mid-cycle stationary period; resulting in a frequency of 0.1 Hz and a maximal shear rate of 0.1 per second. The pin is suspended by a torsion wire that acts as a torque transducer. […] The torque experienced by the pin (relative to the cup's oscillation) is plotted as a function of time. The amplitude on the TEG tracing is a measure of the rigidity of the clot; the peak strength or the shear elastic modulus attained by the clot, G, is a function of clot rigidity and can be calculated from the maximal amplitude (MA) of the TEG tracing.
The following parameters were measured from the TEG tracing (FIG. 5):
R, the reaction time (gelation time) represents the latent period before the establishment of a 3-dimensional fibrin gel network (with measurable rigidity of amplitude=2 mm).
Maximum Amplitude (MA, in mm) is the peak rigidity manifested by the clot.
Shear elastic modulus or clot strength (G, dynes/cm^2) is defined by: G=(5000* MA)/(96-MA) for computerized TEG. […]
To assess the effect of the TF modification on peak clot strength (G) was measured with and without the addition of TF in paired samples of WB and PRP. To document the contribution of activated platelets to the elastic modulus of fibrin clots, the effect of platelet number was measured by serially diluting PRP with PPP. The platelet count of each dilution was measured before performing TEG. […] The Thrombelastograph maximum amplitude (MA) for platelets MA (PLT)) was calculated by subtracting the MA from a platelet-poor plasma (PPP) sample MA (PPP) determined in one thromboelastography well from that of whole blood MA (WB) run simultaneously in the second thromboelastography well.

[3] abbreviates: rat, TPA 1, sibrafiban 0.3, compound B 0.3 mg/kg i.v., given 5 min after preformed clot, free acids used.

“Also recorded” adds a separate entry of the source.

With `CC(=O)Oc1ccccc1C(=O)O` [Aspirin, aspirin, reference compound], the “effect on occlusion of the artery / carotid blood flow” value in experiment [1] is given as “did not prevent the occlusion of the artery”.
As for `CS(=O)(=O)O.Cc1noc(C)c1S(=O)(=O)N[C@@H](CNC(=O)C[C@H]1CC(c2ccc(C(=N)N)cc2)=NO1)C(=O)O` [Compound (A)], in experiment [1], the “effect on occlusion of the artery / carotid blood flow” value is recorded as “did not prevent the occlusion of the artery; also recorded: not effective”.
On to `CCOC(=O)COC1CCN(C(=O)[C@H](C)NC(=O)c2ccc(C(=N)NO)cc2)CC1` [sibrafiban, reference compound], for which the “effectiveness in preventing thrombosis in this rat model” value in the experiment on preformed clot is given as “equal effective”.
Turning to TFPI: Tissue factor pathway inhibitor, in experiment [2] (LPS 6.25 μg, human whole blood, mean ± SEM), the “IC50, clot formation (clot retraction) induced by LPS” value was determined as 0.09 ± 0.01 µg/mL.
Consider tissue plasminogen activator [TPA], for which the Incidence of reocclusion in the experiment on preformed clot (rat, TPA 1, sibrafiban 0.3, compound B 0.3 mg/kg i.v., given 5 min after preformed clot, animals reoccluded/total) was 15/17. In the experiment on preformed clot (setting [3]), the Duration of patency is given as 29 ± 2% and the Time to reperfusion came to 32 ± 6 min.
With `CC(=O)O.CCCCOC(=O)N[C@@H](CNC(=O)C[C@H]1CC(c2ccc(C(=N)N)cc2)=NO1)C(=O)OC` [Compound B, roxifiban], the “enhancement of clot strength by platelets” value in experiment [2] was “inhibited”.
On to `CC(=O)O.CCCCOC(=O)N[C@@H](CNC(=O)C[C@H]1CC(c2ccc(C(=N)N)cc2)=NO1)C(=O)OC` (stereo in doubt) [Compound B, roxifiban], for which the “effectiveness in preventing thrombosis in this rat model” value in the experiment with preformed clot is reported as “equal effective”.

B1: Abciximab: c7E3 Fab (Abciximab, Centocor), platelet GPIIb/IIIa antagonist (antibody, chains of the INN, looked up, V domains shown)
VH: EVQLQQSGTVLARPGASVKMSCEASGYTFTNYWMHWVKQRPGQGLEWIGAIYPGNSDTSYIQKFKGKAKLTAVTSTTSVYMELSSLTNEDSAVYYCTLYDGYYVFAYWGQGTLVTVSA
VL: EIVLTQSPVTLSVTPGDSVSLSCRASRDISNNLHWFQQTSHESPRLLIKYASQSMSGIPSRFSGSGSGTDFTLSINSVETEDFGMYFCQQTNSWPYTFGGGTKLEIK
modifications: Fab
notes: c7E3 Fab (Abciximab, Centocor), platelet GPIIb/IIIa antagonist
B1: the “enhancement of clot strength by platelets” value in experiment [2] is “inhibited”.
